Test results as given in US8192962B2, “Processes for detecting toxic substances” (Daikin Industries, Ltd., priority 2001, dated 2012).

System: Genes belonging to other category
Experiment: DNA chip mRNA expression in yeast, genes belonging to other category (Table 9)
Assay type: cell-based, Saccharomyces cerevisiae S288C
Procedure, shortened: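 Measured as treated-to-untreated fluorescence ratio on a full-genome yeast DNA chip. Cells (S288C, YPD, 25° C.) were exposed in log phase for two hours to one chemical, dosed to curb growth without killing.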

## [Cl][Pb][Cl] [(4), PbCl2]
Yeast gene YKL013C
  The level of expressed mRNA in the presence of chemical substance/The level of expressed mRNA in the absence of chemical substance: 1.1
Yeast gene YKL039W
  The level of expressed mRNA in the presence of chemical substance/The level of expressed mRNA in the absence of chemical substance: 0.8
Yeast gene YKL041W
  The level of expressed mRNA in the presence of chemical substance/The level of expressed mRNA in the absence of chemical substance: 1.0
Yeast gene YKL096W
  The level of expressed mRNA in the presence of chemical substance/The level of expressed mRNA in the absence of chemical substance: 1.6
Yeast gene YKL165C
  The level of expressed mRNA in the presence of chemical substance/The level of expressed mRNA in the absence of chemical substance: 0.6
Yeast gene YKL193C
  The level of expressed mRNA in the presence of chemical substance/The level of expressed mRNA in the absence of chemical substance: 1.4
Yeast gene YLR120C
  The level of expressed mRNA in the presence of chemical substance/The level of expressed mRNA in the absence of chemical substance: 1.6
Yeast gene YLR136C
  The level of expressed mRNA in the presence of chemical substance/The level of expressed mRNA in the absence of chemical substance: 3.3
Yeast gene YLR178C
  The level of expressed mRNA in the presence of chemical substance/The level of expressed mRNA in the absence of chemical substance: 4.6
Yeast gene YLR250W
  The level of expressed mRNA in the presence of chemical substance/The level of expressed mRNA in the absence of chemical substance: 1.4
Yeast gene YLR327C
  The level of expressed mRNA in the presence of chemical substance/The level of expressed mRNA in the absence of chemical substance: 8.2
Yeast gene YLR356W
  The level of expressed mRNA in the presence of chemical substance/The level of expressed mRNA in the absence of chemical substance: 1.2
Yeast gene YLR362W
  The level of expressed mRNA in the presence of chemical substance/The level of expressed mRNA in the absence of chemical substance: 3.0
Yeast gene YLR391W
  The level of expressed mRNA in the presence of chemical substance/The level of expressed mRNA in the absence of chemical substance: 0.8
Yeast gene YLR429W
  The level of expressed mRNA in the presence of chemical substance/The level of expressed mRNA in the absence of chemical substance: 0.9
Yeast gene YMR004W
  The level of expressed mRNA in the presence of chemical substance/The level of expressed mRNA in the absence of chemical substance: 1.3
Yeast gene YMR094W
  The level of expressed mRNA in the presence of chemical substance/The level of expressed mRNA in the absence of chemical substance: 1.7
Yeast gene YMR104C
  The level of expressed mRNA in the presence of chemical substance/The level of expressed mRNA in the absence of chemical substance: 2.6
Yeast gene YMR219W
  The level of expressed mRNA in the presence of chemical substance/The level of expressed mRNA in the absence of chemical substance: 0.7
Yeast gene YMR226C
  The level of expressed mRNA in the presence of chemical substance/The level of expressed mRNA in the absence of chemical substance: 1.6
Yeast gene YMR275C
  The level of expressed mRNA in the presence of chemical substance/The level of expressed mRNA in the absence of chemical substance: 0.6
Yeast gene YMR276W
  The level of expressed mRNA in the presence of chemical substance/The level of expressed mRNA in the absence of chemical substance: 0.7
Yeast gene YMR314W
  The level of expressed mRNA in the presence of chemical substance/The level of expressed mRNA in the absence of chemical substance: 1.3
Yeast gene YNL006W
  The level of expressed mRNA in the presence of chemical substance/The level of expressed mRNA in the absence of chemical substance: 1.5
Yeast gene YNL007C
  The level of expressed mRNA in the presence of chemical substance/The level of expressed mRNA in the absence of chemical substance: 0.8
Yeast gene YNL093W
  The level of expressed mRNA in the presence of chemical substance/The level of expressed mRNA in the absence of chemical substance: 4.5
Yeast gene YNL333W
  The level of expressed mRNA in the presence of chemical substance/The level of expressed mRNA in the absence of chemical substance: 2.3
Yeast gene YNR010W
  The level of expressed mRNA in the presence of chemical substance/The level of expressed mRNA in the absence of chemical substance: 2.8
Yeast gene YNR069C
  The level of expressed mRNA in the presence of chemical substance/The level of expressed mRNA in the absence of chemical substance: 0.4
Yeast gene YOL013C
  The level of expressed mRNA in the presence of chemical substance/The level of expressed mRNA in the absence of chemical substance: 1.5
Yeast gene YOL164W
  The level of expressed mRNA in the presence of chemical substance/The level of expressed mRNA in the absence of chemical substance: 1.5
Yeast gene YOR036W
  The level of expressed mRNA in the presence of chemical substance/The level of expressed mRNA in the absence of chemical substance: 1.6
Yeast gene YOR117W
  The level of expressed mRNA in the presence of chemical substance/The level of expressed mRNA in the absence of chemical substance: 0.8
Yeast gene YOR124C
  The level of expressed mRNA in the presence of chemical substance/The level of expressed mRNA in the absence of chemical substance: 0.8
Yeast gene YOR132W
  The level of expressed mRNA in the presence of chemical substance/The level of expressed mRNA in the absence of chemical substance: 2.8
Yeast gene YOR157C
  The level of expressed mRNA in the presence of chemical substance/The level of expressed mRNA in the absence of chemical substance: 1.3
Yeast gene YOR181W
  The level of expressed mRNA in the presence of chemical substance/The level of expressed mRNA in the absence of chemical substance: 1.4
Yeast gene YOR185C
  The level of expressed mRNA in the presence of chemical substance/The level of expressed mRNA in the absence of chemical substance: 1.1
Yeast gene YOR198C
  The level of expressed mRNA in the presence of chemical substance/The level of expressed mRNA in the absence of chemical substance: 1.0
Yeast gene YOR259C
  The level of expressed mRNA in the presence of chemical substance/The level of expressed mRNA in the absence of chemical substance: 0.9
Yeast gene YOR261C
  The level of expressed mRNA in the presence of chemical substance/The level of expressed mRNA in the absence of chemical substance: 0.9
Yeast gene YOR288C
  The level of expressed mRNA in the presence of chemical substance/The level of expressed mRNA in the absence of chemical substance: 1.1
Yeast gene YOR355W
  The level of expressed mRNA in the presence of chemical substance/The level of expressed mRNA in the absence of chemical substance: 0.8
Yeast gene YOR383C
  The level of expressed mRNA in the presence of chemical substance/The level of expressed mRNA in the absence of chemical substance: 0.9
Yeast gene YPL089C
  The level of expressed mRNA in the presence of chemical substance/The level of expressed mRNA in the absence of chemical substance: 1.8
Yeast gene YPL109C
  The level of expressed mRNA in the presence of chemical substance/The level of expressed mRNA in the absence of chemical substance: 1.2
Yeast gene YPL149W
  The level of expressed mRNA in the presence of chemical substance/The level of expressed mRNA in the absence of chemical substance: 2.8
Yeast gene YPL154C
  The level of expressed mRNA in the presence of chemical substance/The level of expressed mRNA in the absence of chemical substance: 1.2
Yeast gene YPR103W
  The level of expressed mRNA in the presence of chemical substance/The level of expressed mRNA in the absence of chemical substance: 0.7
Yeast gene YPR108W
  The level of expressed mRNA in the presence of chemical substance/The level of expressed mRNA in the absence of chemical substance: 0.6
